# What was measured:
# [1] = test system: insoluble plaques in the 5XFAD mouse brain; assay: Brain staining of AD mouse model with compound and anti-Aβ antibody 6E10; details: 5XFAD brain sections; co-staining with 6E10
# Procedure: Mouse brain tissues were fixed in 4 % paraformaldehyde (Biosesang, Korea) at 4 °C overnight and then cryoprotected by immersion in 30 % sucrose for 48 hours. Brain sections (25 µm) were cut using a cryostat (CM1860, Leica) and mounted on slides. The brain tissue sections were treated with the compound of the present disclosure (500 µM) overnight at room temperature. After washing with 1X PBS, antigen retrieval for the fixed brain sections was performed in 1X PBS (Gibco, Korea) containing 1 % SDS (Biosesang, Korea) for 10 minutes, followed by blocking with 20 % horse serum in 1X PBS. After blocking for 1 hour, the slides were incubated with mouse monoclonal antibody 6E10 (1:200, BioLegend, USA) at room temperature for 1 hour. […] After staining the cortical and hippocampal regions of the fixed brain, each brain slide was visualized using a fluorescence microscope (DM500, Leica) equipped with filter cubes containing excitation and emission filters: N2.1 filter cube for detecting 6E10 staining (Excitation filter: BP 515-560; Dichromatic mirror: 580; Emission filter: LP 590) and L5 filter cube for detecting the compound of the present disclosure (Excitation filter: BP 480/40; Dichromatic mirror: 505; Emission filter: BP 527/30). […]
# Aβ1-42 oligomers = target: T1, Aβ1-42 oligomers (Homo sapiens, UniProt P05067); assay: Co-incubation with Aβ1-42 oligomers and albumin; type: binding; details: co-incubated with Aβ1-42 oligomers and albumin
# T1 construct: Aβ1-42 peptide was aggregated at 37 °C for 8 hours
# T1 sequence (P05067 672-713): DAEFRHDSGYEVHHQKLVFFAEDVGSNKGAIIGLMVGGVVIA
# Procedure: Full-length Aβ1-42 peptide was immobilized on a maleimide-activated microplate. Then, the plate was treated with additional Aβ1-42 peptide (10 µM) at 37°C for 8 hours. After peptide immobilization, unbound peptides were removed by washing three times with 200 µL of wash buffer. To form albumin-Aβ oligomer complexes, the plate was treated with albumin (10 µM, Sigma-Aldrich, USA) at room temperature for 24 hours, and unbound residues were removed by washing three times with 200 µL of wash buffer. The control Aβ oligomer wells were not treated with albumin. Each well was treated with the compound of the present disclosure (100 µM), and the signal of each sample was detected using a microplate reader (λex = 285 nm / λem = 475 nm).
# In addition, to investigate whether albumin interferes with the binding between IK15j and Aβ1-42 oligomers, IK15j was co-incubated with Aβ1-42 oligomers and albumin as described in Reference Example 11, and the fluorescence signal of each sample was analyzed.
compound,measurement,setting,value
"Cc1ccc2c(c1)c(-c1ccccc1)cn1c(C)cc(C#N)c21 [IK15j, 3,8-dimethyl-6-phenylpyrrolo[2,1-a]isoquinoline-1-carbonitrile]",signal in hippocampal and cortical regions (brain staining),[1],no signal
same,signal of Aβ1-42 oligomer and albumin sample compared to Aβ1-42 oligomer-only sample,Aβ1-42 oligomers,"decreased compared to the Aβ1-42 oligomer-only sample, the difference was not significant"

# Reference: patent EP4755889A1, “COMPOUND FOR DETECTING AMYLOID-BETA OLIGOMER AND METHOD FOR DIAGNOSING DEGENERATIVE BRAIN DISEASE USING SAME” (Amyloid Solution Inc., priority 2024, dated 2025)
